A short description of series [1]: Action to increase calcium concentration in serum, percutaneous administration. The series is classed as in vivo, SD male rats. As for the experimental part:
The compound of the invention mentioned in Example 1 or maxacalcitol in ethanol containing 0.3% DMSO was repeatedly subjected to percutaneous administration (33 μg/200 μL/kg/day) once a day for 7 days onto the back of SD male rats (7 weeks of age). Ethanol containing 0.3% DMSO was administered to a control group. At 24 hours after the final administration, blood was collected and the calcium concentration in serum was measured.

The test system of series [2] is human acute myelogenous leukemia cell line HL-60. The series can be described thus: Ability to induce differentiation of HL-60 cells (oxygen radical production after phorbol ester, WST-1). The series is classed as cell-based. Conditions: Homo sapiens, 72 hours incubation, then WST-1 and phorbol 12,13-didecanoate for 4 hours, absorbance at 450 nm.
Series [3] can be described thus: Action to increase the urinary excretion of calcium (1), percutaneous administration. The series is classed as in vivo, SD male rats. The note with it: percutaneous 10 μg/200 μL/kg/day once a day for 4 days. As for the experimental part:
The compound of the invention mentioned in Example 1, 36, 43, 47, 48, 55 or 70 or maxacalcitol in ethanol containing 0.5% DMSO was repeatedly subjected to a percutaneous administration (10 μg/200 μL/kg/day) once a day for 4 days onto the back of SD male rats (7 weeks of age). Ethanol containing 0.5% DMSO was administered to a control group. The calcium concentration in urine collected every 24 hours was measured and multiplied by the amount of urine to calculate the urinary excretion of calcium. The calcium excretion in urine shown in Table 3 indicates the accumulated calcium excretion from 0 to 24 hours, from 0 to 48 hours, from 0 to 72 hours, and from 0 to 96 hours.

The nature of series [4]: Metabolic rate in human liver microsome. Conditions: pooled human liver microsome 1 mg/mL protein, NADPH-regenerating system, 37° C., 2-60 minutes, HPLC. The format is in vitro ADME. (In general: Liver microsomes are a subcellular fraction often used to study metabolism.)
Series [5] can be described thus: Action to increase the urinary excretion of calcium (2), intravenous administration. The format is in vivo, SD male rats. Conditions: intravenous 22.4 nmol/kg. As for the experimental part:
The compound of the invention mentioned in Example 42, 61 or 66, or maxacalcitol in saline containing 0.1% Triton X 100/5.6% DMSO (22.4 nmol/kg) was subjected to an intravenous administration to SD male rats (7 weeks of age) Saline containing 0.1% Triton X 100/5.6% DMSO was administered to a control group. The calcium concentration in urine collected within 24 hours after the administration was measured and the urinary excretion of calcium ([calcium concentration in urine]×[amount of urine]) and the ratio of urinary excretion of calcium based on the control group ([calcium amount in urine in administration of the test compound]/[calcium amount in urine in the control group]) were calculated.

Turning to `C=C1/C(=C\C=C2/CCC[C@]3(C)[C@@H]([C@H](C)OCCC(C)(C)O)CC[C@@H]23)C[C@@H](O)C[C@@H]1O` [Maxacalcitol, (1S,3R,20S)-20-(3-hydroxy-3-methylbutyloxy)-9,10-secopregna-5Z,7E,10(19)-trien-1,3-diol, reference compound], the “effect on the calcium concentration in serum (in words)” value in series [1] (percutaneous 33 μg/200 μL/kg/day for 7 days) was “increased the calcium concentration in serum”. For the same molecule, the “Serum Calcium Concentration” value in series [1] (percutaneous 33 μg/200 μL/kg/day once a day for 7 days, blood 24 hours after final administration) is reported as 15.0 mg/dL. Moreover, the EC50 in series [2] was 5.4 nM. Further, the “Calcium in Urine within 24 hours” value in series [3] (accumulated excretion 0 to 24 hours) was 2.6 mg. Moreover, the “Calcium in Urine within 48 hours” value in series [3] (accumulated excretion 0 to 48 hours) was found to be 4.5 mg. The “Calcium in Urine within 72 hours” value in series [3] (accumulated excretion 0 to 72 hours) is 8.5 mg. Further, in series [3] (accumulated excretion 0 to 96 hours), the “Calcium in Urine within 96 hours” value came out at 13.9 mg. Further, the “Metabolic Rate” value in series [4] is given as 10 pmol/min/mg. Further, the “Calcium in Urine” value in series [5] (urine collected within 24 hours after administration) was found to be 2.3 mg. The “Ratio of Calcium in Urine (to control)” value in series [5] (urine within 24 hours, test compound/control group) is recorded as 460%.

The term EC50 denotes the concentration at which the effect is half-maximal. Higher therefore signals a need for much substance.

The values above are taken from patent US8796246B2, “9, 10-secopregnane derivative and pharmaceutical” (Nippon Shinyaku Co., Ltd., priority 2006, dated 2014).
